Laboratory results as given in US11730817B2, “Pro-cyclic dinucleotides and pro-cyclic dinucleotide conjugates for cytokine induction” (INVIVOGEN, priority 2017, dated 2023).
pEC50: −log10 of the molar value.

Experiments:
[1] = Lipid-based nanoparticle formation (PdI, Z Ave); assay type: physicochemical; conditions: for Z Ave (nm): lipid BAM-CDN particles; for PdI: polydispersity index of lipid BAM-CDN
STING [2] = target: STING (Homo sapiens, UniProt Q86WV6, G230A/H232R/R293Q/R71H); assay: ISG54 (IRF pathway) reporter assay in THP1-Dual cells
Chain of STING (Homo sapiens, UniProt Q86WV6, G230A/H232R/R293Q/R71H) (Q86WV6 whole entry R71H/G230A/H232R/R293Q): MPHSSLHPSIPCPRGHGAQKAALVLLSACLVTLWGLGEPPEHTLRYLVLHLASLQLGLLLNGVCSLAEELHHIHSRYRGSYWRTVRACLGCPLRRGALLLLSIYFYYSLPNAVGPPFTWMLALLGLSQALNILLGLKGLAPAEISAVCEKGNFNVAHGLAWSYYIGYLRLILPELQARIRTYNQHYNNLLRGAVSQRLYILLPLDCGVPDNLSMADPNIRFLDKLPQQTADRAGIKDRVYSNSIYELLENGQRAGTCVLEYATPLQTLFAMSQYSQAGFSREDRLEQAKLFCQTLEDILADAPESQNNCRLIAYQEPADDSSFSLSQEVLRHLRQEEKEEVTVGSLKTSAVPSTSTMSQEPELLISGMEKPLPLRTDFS

STING [3] = target: T1, STING (Mus musculus, UniProt Q3TBT3); assay: ISG reporter assay in RAW-Lucia ISG cells
T1 sequence (Q3TBT3 1-378): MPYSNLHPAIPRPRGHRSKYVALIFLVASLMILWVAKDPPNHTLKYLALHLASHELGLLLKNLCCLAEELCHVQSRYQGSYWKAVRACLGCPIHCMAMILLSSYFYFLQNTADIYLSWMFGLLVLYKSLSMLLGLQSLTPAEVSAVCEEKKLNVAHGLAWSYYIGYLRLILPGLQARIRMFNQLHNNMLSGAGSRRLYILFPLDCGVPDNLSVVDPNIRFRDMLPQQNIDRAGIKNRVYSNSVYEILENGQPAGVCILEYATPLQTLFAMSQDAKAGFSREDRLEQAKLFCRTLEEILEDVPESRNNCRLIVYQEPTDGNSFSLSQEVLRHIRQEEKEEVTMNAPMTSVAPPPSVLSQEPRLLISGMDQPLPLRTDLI

Type I IFNs [4] = assay: Whole-blood assay, type I IFN induction (HEK-Blue IFN-α/β-KO-STING readout); assay type: cell-based, human; conditions: whole blood assay, type I IFN; read-out: EC50 (μM) IFN in WBA
Description: Type I IFNs: HEK-Blue™ IFN-α/β-KO-STING: These cells, in which the STING gene has been inactivated, are derived from HEK293 cell line known as HEK-Blue™ IFN-α/β (InvivoGen catalog code: hkb-ifnab). HEK-Blue™ IFN-α/β cells enable detection of bioactive human type I IFNs through monitoring of activation of the […]. These cells were generated by stable transfection of HEK293 cells with the human STAT2 and IRF9 genes to obtain a fully active Type-I IFN signaling pathway. The other genes of the pathway (IFNAR1, IFNAR2, JAK1, TyK2 and STAT1) are naturally expressed in sufficient amounts. The cells were further transfected with a SEAP reporter gene under control of an IFNα/β-inducible ISG54 promoter. This promoter comprises five IFN-stimulated response elements (ISREs) fused to a minimal promoter of the human ISG54 gene, which is unresponsive to activators of the NF-κB or AP-1 pathways. Stimulation of HEK-Blue™ IFN-α/β cells with human IFN-α or IFN-β activates the JAK/STAT/ISGF3 pathway and subsequently induces production of SEAP. Production of type I IFNs in these cells is measured using QUANTI-Blue™.
Briefly, the samples were collected by venipuncture into sodium heparin tubes at the time of donation. The samples were analyzed for rhesus (Rh), blood group, hematocrit and serological status (AgHBS, HIV, HCV, HTLV, HBC, CMV, Syph). The tubes were picked up on the day of collection and subsequently tested (blood analysis, and treatment with test items) on the same day.
Each blood sample was diluted (1:2 [v/v]) in RPMI medium and aliquoted into 96-well plates (180-μL wells) containing either CDN (√10-fold serial dilution starting from 50 μM). The plates were incubated at 37° C. in a 5% CO2 incubator for 18 hours. Then, the supernatants were collected, transferred into the corresponding wells of round-bottom 96-well plates, and either stored at −80° C., or immediately tested in the appropriate reporter cell line.
A new 96-wells plate was prepared for each reporter cell lines tested, as follows: 10 μL of supernatant from the previous plate were added to the corresponding well in the new reporter cell plate. Then, a 190-μL aliquot of cells of the desired reporter cell line, previously harvested in medium containing heat-inactivated serum and counted, was added to each well (approximately 50,000 cells/well), and the plate was incubated for approximately 20 hours. The desired cytokine induction activity was determined using the QUANTI-Blue™ assay, as previously described. Briefly, 20 μL of supernatant from the previously incubated plate was transferred to the corresponding well of a new 96-well plate in which 180 μL of QUANTI-Blue™ reagent had previously been added.

Type I IFNs [5] = assay: as above; assay type: cell-based, human; conditions: relative to CL656 at 1 μM
PDL1 = PDL1 (Homo sapiens, UniProt Q9NZQ7); assay: Antigen binding ELISA of anti-PDL1mAb:CDN conjugate; conditions: relative to anti PDL1 at 10 μg/mL
Chain of PDL1 (Q9NZQ7 19-290, species assumed): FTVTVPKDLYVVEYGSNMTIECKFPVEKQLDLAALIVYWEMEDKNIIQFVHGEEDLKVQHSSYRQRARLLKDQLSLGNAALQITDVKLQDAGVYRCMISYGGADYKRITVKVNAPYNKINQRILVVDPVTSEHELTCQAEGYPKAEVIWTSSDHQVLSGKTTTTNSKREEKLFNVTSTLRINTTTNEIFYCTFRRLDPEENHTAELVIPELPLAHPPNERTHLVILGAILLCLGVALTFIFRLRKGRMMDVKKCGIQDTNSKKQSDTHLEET
Description: We performed Whole Blood Assay on healthy human donors to evaluate the ability of the anti-PDL1mAb:CDN conjugate (Compound 47) to induce type I interferons as described previously in Example 2.2. The binding properties of the anti-PDL1mAb:CDN conjugate have been evaluated using ELISA.

STING [6] = assay: ISG activity of protein:CDN and antigen:CDN conjugates in reporter cell lines; assay type: cell-based
Description: In the present invention, we evaluated using reporter cell lines the ISG activity of protein:CDN conjugates using in vitro conditions favorable to the release of both components.

| Molecule | Z Ave (nm) [1] [nm] | PdI [1] | ISG activity compared with unmodified parental CDN (STING [2]; THP1-Dual cells) | ISG activity compared with unmodified parental CDN (STING [3]) | EC50 (Type I IFNs [4]) [µM] | IFN activity @ 50 μg/mL in WBA (% of CL656 @ 1 μM) (Type I IFNs [5]) [%] | Antigen binding (% of anti PDL1 @ 10 μg/mL) (PDL1) [%] | pEC50 (STING [2]) | Fold ISG induction vs unstimulated @10 μM (STING [2]; 10 μM, THP1-Dual cells) [fold] | ISG activity @ 50 μg/mL (% of CL656 @ 1 μM) (STING [6]; antigen:CDN conjugates) [%] | ISG activity @ 50 μg/mL (% of parental CND @ 1 μM) (STING [6]; in vitro conditions favorable to release of both components) [%] |
| --- | --- | --- | --- | --- | --- | --- | --- | --- | --- | --- | --- |
| CCCCCCCCCCCCCCCC(=O)N[C@H](C(=O)N[C@@H](C)C(=O)Nc1ccc(CSP2(=O)OC[C@H]3O[C@@H](n4cnc5c(N)ncnc54)[C@H](F)[C@@H]3OP(=O)(O)OC[C@H]3O[C@@H](n4cnc5c(O)ncnc54)[C@H](F)[C@@H]3O2)cc1)C(C)C (some centres unmarked) [CL849] | 152.4 | 0.56 | higher ISG activity than the unmodified parental CDN | higher ISG activity than the unmodified parental CDN |  |  |  |  |  |  |  |
| CCCCCCCCCCCCCCCC(=O)N[C@H](C(=O)N[C@@H](CCCNC(N)=O)C(=O)Nc1ccc(CSP2(=O)OC[C@H]3O[C@@H](n4cnc5c(N)ncnc54)[C@H](F)[C@@H]3OP(=O)(S)OC[C@H]3O[C@@H](n4cnc5c(O)ncnc54)[C@H](F)[C@@H]3O2)cc1)C(C)C (some centres unmarked) [CL853] | 155.9 | 0.188 | higher ISG activity than the unmodified parental CDN | higher ISG activity than the unmodified parental CDN | 0.14 |  |  |  |  |  |  |
| Atezolizumab |  |  |  |  |  | 0 | 100 |  |  |  |  |
| CCCCCCCCCCCCCCCC(=O)N[C@H](C(=O)N[C@@H](C)C(=O)Nc1ccc(CSP2(=O)OC[C@H]3O[C@@H](n4cnc5c(N)ncnc54)[C@H](F)[C@@H]3OP(=O)(S)OC[C@H]3O[C@@H](n4cnc5c(O)ncnc54)[C@H](F)[C@@H]3O2)cc1)C(C)C (some centres unmarked) [CL863] | 106.6 | 0.416 | higher ISG activity than the unmodified parental CDN | higher ISG activity than the unmodified parental CDN | 0.15 |  |  |  |  |  |  |
| CCCCCCCCCCCCCCCC(=O)N[C@H](C(=O)N[C@@H](CCCNC(N)=O)C(=O)Nc1ccc(CSP2(=O)OC[C@H]3O[C@@H](n4cnc5c(N)ncnc54)[C@H](F)[C@@H]3OP(=O)(O)OC[C@H]3O[C@@H](n4cnc5c(O)ncnc54)C[C@@H]3O2)cc1)C(C)C (some centres unmarked) [CL848] | 84.3 | 0.18 | higher ISG activity than the unmodified parental CDN | higher ISG activity than the unmodified parental CDN | 0.11 |  |  |  |  |  |  |
| Nc1ncnc2c1ncn2[C@@H]1O[C@@H]2COP(=O)(S)O[C@H]3[C@@H](F)[C@H](n4cnc5c(=O)[nH]cnc54)O[C@@H]3COP(=O)(S)O[C@H]2[C@H]1F (some centres unmarked) [CL656, 3′3′-cAIM(PS)2 Difluor (Rp/Sp)] |  |  |  |  |  | 100 |  | 6.00 | 215 | 100 | 100 |
